Experimental data from US20190133997A1, “ARTEMISININ ANALOG, AND USE, METHOD, AND COMPOSITION FOR PROMOTING LIPID CATABOLISM AND IMPROVING SUGAR METABOLISM” (FUDAN UNIVERSITY, priority 2016, published 2019).

Legend:
SVF primary preadipocyte = experiment: Artemether on differentiation of Stromal Vascular Fraction (SVF) primary preadipocytes (morphology, Western blot); format: cell-based, mice
Protocol: Inguinal fat of male mice was cut into pieces, treated with collagenase at 37° C. for 15 min, and centrifuged at 250 rpm for 10 min. The pellet was resuspended in F12/DMEM medium. 2.5×10^5 cells were taken and seeded in a 3.5 cm culture dish, which was pretreated with 1 ml polylysine for 30 min. Two days after cell contact inhibition (defined as Day 0 of differentiation), induction was performed according to adipocyte differentiation protocol as follows: two days after induction with F12/DMEM comprising 10% fetal bovine serum, 0.5 mMol/L Mix, 1 μMol/L Dex, 5 μg/ml insulin, and 1 μMol/L rosiglitazone; the culture was continued for 2 days with DMEM/F12 comprising 10% fetal bovine serum, […] insulin and 1 μMol/L rosiglitazone; thereafter, DMEM/F12 medium containing 10% fetal bovine serum was replaced every other day until the cells differentiated to Day 8.
On Day 0 of differentiation, SVF was treated with different concentrations of artemether ([…]), then fresh medium was replaced, and the corresponding concentration of artemether was added until the cells differentiated to mature.
The method for extracting total SVF protein was the same as 2.4.3, Western blot method and catalog number of antibody was the same as 2.4.4.

high fat-fed mice = experiment: Intraperitoneal artemether, serum lipid indicators in high-fat diet mice; format: in vivo, Male C57BL/6J mice; settings: intraperitoneal 20 mg/kg twice a week, eight weeks
Protocol: The mice were breeded in the SPF animal laboratory of the Laboratory Animal Center of Fudan University at a room temperature of 21° C.-23° C. with a 12-hour light/dark cycle. […] When the mice were grown to 8-week old, they were randomly divided into a control group and an administration group, with 8 mice in each group. While the mice were fed with a high-fat diet, artemether was injected intraperitoneally. Artemether for intraperitoneal injection was stored at 4° C. in coconut oil at a storage concentration of 6 mg/ml (20 mMol/L), and protected from light. Mice in administration group were injected with artemether at a dose of 20 mg/kg weight. Administration was twice a week for eight weeks.
The mice were anesthetized with 10% chloral hydrate and blood was taken from the orbit. The whole blood was centrifuged at 300 rpm for 5 min at 4° C.
Serum was taken and the serum indicators were measured by lipid calibrator Cfas Lipid, high-density lipoprotein Cfas, and low density lipoprotein Cfas, as well as detection kits for related indicators.

ob/ob mice = experiment: Intraperitoneal artemether, weight gain in diabetic ob/ob mice; format: in vivo, Male ob/ob mice; settings: intraperitoneal 20 mg/kg twice a week, eight weeks
Protocol: The ob/ob mice were breeded in the SPF animal laboratory of the Laboratory Animal Center of Fudan University at a room temperature of 21° C.-23° C. with a 12-hour light/dark cycle. When the mice were grown to 4-week old, they were randomly divided into a control group and an administration group, with 4 mice in each group. The administration group was injected intraperitoneally with artemether. Artemether for intraperitoneal injection was stored at 4° C. in coconut oil at a storage concentration of 6 mg/ml (20 mMol/L), and protected from light. Ob/ob mice in administration group were injected with artemether at a dose of 20 mg/kg weight. Administration was twice a week for eight weeks, and the weight of the mice was recorded weekly.

[1] = SVF, artemether 5, 10, 15 Mol/L, Western Blot

Compound: CO[C@H]1O[C@@H]2O[C@@]3(C)CC[C@H]4[C@H](C)CC[C@@H]([C@H]1C)[C@@]24OO3 [artemether]
- expression level of PGC1α (SVF primary preadipocyte; [1]): gradually increase with the increase of artemether concentration
- expression level of PRDM16 (SVF primary preadipocyte; [1]): gradually increase with the increase of artemether concentration
- expression level of UCP1 (SVF primary preadipocyte; [1]): gradually increase with the increase of artemether concentration
- cell morphology of SVF primary preadipocyte (SVF primary preadipocyte; artemether 5, 10, 15 Mol/L during differentiation, vs standard differentiated control cells, concentration-dependent tendency): smaller in size, with characteristics of multi-cavity small lipid droplets
- Serum cholesterol (high fat-fed mice): significantly decreased
- high-density lipoprotein (HDL) in the serum (high fat-fed mice): not different from the control group
- serum low density lipoprotein (LDL) (high fat-fed mice): significantly decreased
- triglyceride in the serum (high fat-fed mice): not different from the control group
- weight gain of ob/ob mice (ob/ob mice): significantly slower than that of mice in control group
- weight of ob/ob mice (ob/ob mice): tended to be lower than that of mice in control group, but was not statistically different
